Assay results: BindingDB's records for doi:10.3109/14756366.2013.827678 (Qingdao University, 2014)
“And” between values parts separate entries of the source, which are not always exact repeats. Equal entries are not always repeated.

Each compound was assayed against T1, Histone deacetylase 8 (Homo sapiens, UniProt Q9BY41) (assay: Enzyme inhibition assay).
T1 sequence (Q9BY41 whole entry): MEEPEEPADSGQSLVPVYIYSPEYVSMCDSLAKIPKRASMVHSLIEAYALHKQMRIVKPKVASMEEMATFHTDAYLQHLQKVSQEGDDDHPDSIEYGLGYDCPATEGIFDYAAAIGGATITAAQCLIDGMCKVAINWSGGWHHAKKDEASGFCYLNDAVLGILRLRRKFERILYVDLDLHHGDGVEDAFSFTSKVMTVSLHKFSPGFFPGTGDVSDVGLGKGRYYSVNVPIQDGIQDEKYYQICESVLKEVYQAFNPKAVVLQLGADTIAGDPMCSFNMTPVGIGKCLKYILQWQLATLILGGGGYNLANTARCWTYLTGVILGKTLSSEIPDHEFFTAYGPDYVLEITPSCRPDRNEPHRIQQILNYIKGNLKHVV
Method: The nucleus extract […] HDAC8 enzyme was expressed in Escherichia coli. Boc-Lys (acetyl)-AMC was used as the substrate of HDAC. SAHA which is the HDAC inhibitor on market was used as a positive control. The compounds were diluted to six concentrations (25, 5, 1, 0.2, 0.04 and 0.008 uM/L) to investigate their ability of inhibiting HDAC activity.

| IC50 | SMILES |
| --- | --- |
| 1570 nM | O=C(CCCCCNC(=O)c1ccc(NC(=O)N[C@H](C(=O)Nc2ccc(Cl)cc2Cl)c2ccccc2)cc1)NO [(S)-4-(3-(2-((2,4-dichlorophenyl)amino)-2-oxo-1-phenylethyl)ureido)-N-(6-(hydroxyamino)-6-oxohexyl)benzamide (L19)] |
| 1790 nM | CC(C)c1cccc(C(C)C)c1NC(=O)[C@@H](NC(=O)Nc1ccc(C(=O)NCCCCCC(=O)NO)cc1)c1ccccc1 [(S)-4-(3-(2-((2,6-diisopropylphenyl)amino)-2-oxo-1-phenylethyl)ureido)-N-(6-(hydroxyamino)-6-oxohexyl)benzamide (L17)] |
| 1320 nM | O=C(CCCCCNC(=O)c1ccc(NC(=O)N[C@H](C(=O)Nc2ccccc2F)c2ccccc2)cc1)NO [(S)-4-(3-(2-((2-fluorophenyl)amino)-2-oxo-1-phenylethyl)ureido)-N-(6-(hydroxyamino)-6-oxohexyl)benzamide (L2)] |
| 1660 nM | Cc1cc(C)cc(NC(=O)[C@@H](NC(=O)Nc2ccc(C(=O)NCCCCCC(=O)NO)cc2)c2ccccc2)c1 [(S)-4-(3-(2-((3,5-dimethylphenyl)amino)-2-oxo-1-phenylethyl)ureido)-N-(6-(hydroxyamino)-6-oxohexyl)benzamide (L13)] |
| 1280 nM | O=C(CCCCCNC(=O)c1ccc(NC(=O)N[C@H](C(=O)Nc2cccc(Cl)c2)c2ccccc2)cc1)NO [(S)-4-(3-(2-((3-chlorophenyl)amino)-2-oxo-1-phenylethyl)ureido)-N-(6-(hydroxyamino)-6-oxohexyl)benzamide (L12)] |
| 2340 nM | CC(C)(C)c1ccc(NC(=O)[C@@H](NC(=O)Nc2ccc(C(=O)NCCCCCC(=O)NO)cc2)c2ccccc2)cc1 [(S)-4-(3-(2-((4-(tert-butyl)phenyl)amino)-2-oxo-1-phenylethyl)ureido)-N-(6-(hydroxyamino)-6-oxohexyl)benzamide (L4)] |
| 1070 nM and 1210 nM | O=C(CCCCCNC(=O)c1ccc(NC(=O)N[C@H](C(=O)NCc2ccc(F)cc2)c2ccccc2)cc1)NO [(S)-4-(3-(2-((4-fluorobenzyl)amino)-2-oxo-1-phenylethyl)ureido)-N-(6-(hydroxyamino)-6-oxohexyl)benzamide (L15)] |
| 1770 nM | O=C(CCCCCNC(=O)c1ccc(NC(=O)N[C@H](C(=O)Nc2ccc(F)cc2)c2ccccc2)cc1)NO [(S)-4-(3-(2-((4-fluorophenyl)amino)-2-oxo-1-phenylethyl)ureido)-N-(6-(hydroxyamino)-6-oxohexyl)benzamide (L3)] |
| 1510 nM | O=C(CCCCCNC(=O)c1ccc(NC(=O)N[C@H](C(=O)NCc2ccccc2)c2ccccc2)cc1)NO [(S)-4-(3-(2-(benzylamino)-2-oxo-1-phenylethyl)ureido)-N-(6-(hydroxyamino)-6-oxohexyl)benzamide (L1)] |
| 1460 nM | O=C(CCCCCNC(=O)c1ccc(NC(=O)N[C@H](C(=O)Nc2ccco2)c2ccccc2)cc1)NO [(S)-4-(3-(2-(furan-2-ylamino)-2-oxo-1-phenylethyl)ureido)-N-(6-(hydroxyamino)-6-oxohexyl)benzamide (L5)] |
| 1300 nM | O=C(CCCCCNC(=O)c1ccc(NC(=O)N[C@H](C(=O)Nc2ccccc2O)c2ccccc2)cc1)NO [(S)-N-(6-(hydroxyamino)-6-oxohexyl)-4-(3-(2-((2-hydroxyphenyl)amino)-2-oxo-1-phenylethyl)ureido)benzamide (L11)] |
| 1770 nM | COc1ccccc1NC(=O)[C@@H](NC(=O)Nc1ccc(C(=O)NCCCCCC(=O)NO)cc1)c1ccccc1 [(S)-N-(6-(hydroxyamino)-6-oxohexyl)-4-(3-(2-((2-methoxyphenyl)amino)-2-oxo-1-phenylethyl)ureido)benzamide (L10)] |
| 967 nM | O=C(CCCCCNC(=O)c1ccc(NC(=O)N[C@H](C(=O)Nc2cccc(C(F)(F)F)c2)c2ccccc2)cc1)NO [(S)-N-(6-(hydroxyamino)-6-oxohexyl)-4-(3-(2-oxo-1-phenyl-2-((3-(trifluoromethyl)phenyl)amino)ethyl)ureido)benzamide (L8)] |
| 1320 nM | Cc1cccc(NC(=O)[C@@H](NC(=O)Nc2ccc(C(=O)NCCCCCC(=O)NO)cc2)c2ccccc2)c1 [(S)-N-(6-(hydroxyamino)-6-oxohexyl)-4-(3-(2-oxo-1-phenyl-2-(m-tolylamino)ethyl)ureido)benzamide (L18)] |
| 1340 nM | Cc1ccccc1NC(=O)[C@@H](NC(=O)Nc1ccc(C(=O)NCCCCCC(=O)NO)cc1)c1ccccc1 [(S)-N-(6-(hydroxyamino)-6-oxohexyl)-4-(3-(2-oxo-1-phenyl-2-(o-tolylamino)ethyl)ureido)benzamide (L6)] |
| 1870 nM | Cc1ccc(NC(=O)[C@@H](NC(=O)Nc2ccc(C(=O)NCCCCCC(=O)NO)cc2)c2ccccc2)cc1 [(S)-N-(6-(hydroxyamino)-6-oxohexyl)-4-(3-(2-oxo-1-phenyl-2-(p-tolylamino)ethyl)ureido)benzamide (L9)] |
| 1520 nM | CC(C)(C)OC(=O)NC(C(=O)Nc1ccc(C(=O)NO)cc1)c1ccccc1 (configuration not stated) [phenylglycine containing lead compound (4h)] |
